Results: US10875830B2, “Method of treatment” (priority 2016, dated 2020)
Read-outs that look alike come from different tables or passages of the source.

Legend:
[1] = tested on: PqsABCD; assay: AQ (HHQ) biosynthesis by PqsABCD, TLC with biosensor overlay; type: cell-based, Pseudomonas aeruginosa; settings: 200 μM, PAO1-N ΔpqsAHR pBBR-pqsABCD, overnight in LB
Source text: To determine whether 4-(4-chlorophenyl)-5-methylene-pyrrol-2-one (Ref. 488) is capable of inhibiting the enzymes (PqsABCD) involved in AQ biosynthesis, the P. aeruginosa PAO1-N ΔpqsAHR was exploited. This mutant cannot produce AQs because the genes coding for the key biosynthetic enzymes (PqsA and PqsH) and regulation (PqsR) have been deleted. To restore AQ production in a PqsR-independent manner in PAO1-N ΔpqsA, the pqsABCD genes were introduced on a plasmid (pBBR pqsABCD; Niewerth et al. 2011). P. aeruginosa PAO1-N ΔpqsAHR and P. aeruginosa PAO1-N ΔpqsAHR pBBR pqsABCD were both incubated overnight in LB with and without 4-(4-chlorophenyl)-5-methylene-pyrrol-2-one (Ref. 488) (200 μM), resuspended to an OD600 1.0. The cultures were extracted with acidified ethyl acetate, the organic phase removed, dried and resuspended in methanol subjected to thin layer chromatography (TLC).
After chromatography using a dichloromethane-methanol mobile phase, the TLC plates were overlaid with a thin agar layer containing the AQ biosensor strain PAO1-L ΔpqsA CTX::pqsA′-luxCDABE (Fletcher et al. 2007) incubated and examined for reporter output (FIG. 13). […] The biosensor strain produces light (FIG. 13 panel C) and pyocyanin (FIG. 13 panel B) in response to AQs that bind to PqsR and activate the pqsA promoter.

[2] = target: T1, PqsR (Pseudomonas aeruginosa, UniProt Q9I4X0); assay: PQS-dependent pqsA::lux expression in AQ-non producing PAO1-L ΔpqsA (PqsR antagonism); type: cell-based
T1 construct: endogenous in cells; host or cells: P. aeruginosa PAO1-L ΔpqsA, chromosomal pqsA::lux fusion
T1 sequence (Q9I4X0 whole entry, the tested form may be a part): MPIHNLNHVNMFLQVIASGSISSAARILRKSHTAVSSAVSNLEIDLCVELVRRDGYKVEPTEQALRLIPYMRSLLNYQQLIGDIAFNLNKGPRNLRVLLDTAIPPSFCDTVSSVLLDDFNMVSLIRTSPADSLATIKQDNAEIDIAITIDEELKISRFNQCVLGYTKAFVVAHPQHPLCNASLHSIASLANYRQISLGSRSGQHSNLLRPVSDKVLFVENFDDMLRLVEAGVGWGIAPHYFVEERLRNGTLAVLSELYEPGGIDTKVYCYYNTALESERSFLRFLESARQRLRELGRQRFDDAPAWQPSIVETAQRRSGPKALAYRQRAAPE
Source text: The inhibitory action of 4-(4-chlorophenyl)-5-methylene-pyrrol-2-one (Ref. 488) may involve inhibition of AQ biosynthesis or 4-(4-chlorophenyl)-5-methylene-pyrrol-2-one (Ref. 488) may behave like an antagonist and block the PQS receptor, PqsR. […] Experiments were therefore designed to determine the nature and degree of 4-(4-chlorophenyl)-5-methylene-pyrrol-2-one (Ref. 488) inhibitory activity.
By using the AQ-non producing P. aeruginosa strain PAO1-L ΔpqsA, pqsA::lux, the EC50 value for the native PqsR agonist, PQS was calculated as ˜2 μM (Ilangovan et al. 2013).
The experiment shown in FIG. 8 was then repeated using 4-(4-chlorophenyl)-5-methylene-pyrrol-2-one (Ref. 488) concentrations of 0, 50, 100 and 200 μM.
A partial agonist is a molecule that can bind to and activate a receptor resulting in a non-complete response compared with a full agonist. […] This contrasts with its activity as an antagonist in the presence of 10 or 40 μM PQS.

[3] = tested on: P. aeruginosa strain PAO1-L; assay: pyocyanin production by PAO1-L, visual assessment; type: cell-based, Pseudomonas aeruginosa; settings: 100 μM (vial 2), 8 h at 37° C., qualitative
Source text: Pyocyanin is a blue redox-active secondary metabolite and a putative signalling molecule in P. aeruginosa (Jayaseelan et al, 2014). The pyocyanin biosynthetic (phz) genes are regulated by QS and in part via the transcriptional regulator PqsR acting through PqsE (Rampioni et al 2011).
Although qualitative, this observation offers further confirmation of the inhibitory effects of lactam 4-(4-chlorophenyl)-5-methylene-pyrrol-2-one (Ref. 488) on AQ-dependent QS.

[4] = tested on: P. aeruginosa PAO1 pqsA::lux; assay: pqsA::lux promoter fusion biosensor in P. aeruginosa PAO1-L (AQ-dependent quorum sensing); type: cell-based, Pseudomonas aeruginosa; settings: for IC50: Pseudomonas aeruginosa, PAO1, read-out: IC50, pqsA::lux expression; for inhibition of light output / pqsA expression at high concentrations: FIG. 6 and 7
Method: The expression of rhl and las AHL- and the pqsA AQ-synthase genes was evaluated using lux-based lasl (FIG. 1), rhll (FIG. 2) and pqsA (FIG. 3) chromosomally integrated promoter fusions. Luminescence was quantified as a function of bacterial growth. The applicant further determined that none of the lactams is growth inhibitory at 100 μM using a large number of strains (figure not shown).
To determine the relative inhibitory activities (IC50s) of 4-(4-chlorophenyl)-5-methylene-pyrrol-2-one (Ref. 488) and 5-methylene-4-(p-tolyl)pyrrol-2-one (Ref. 491), dose response curves were constructed using the same biosensor strain (P. aeruginosa PAO1 pqsA::lux; Fletcher et al, 2007; Ilangovan et al 2013). This strain produces light in response to the endogenous production of AQs such as PQS and HHQ.

[5] = tested on: PAO1-N ΔpqsAHR pqsA'::lux; assay: PqsR-independent pqsA'::lux expression in PAO1-N ΔpqsAHR; type: cell-based, Pseudomonas aeruginosa; settings: presence or absence of 40 μM PQS, FIG. 11
Source text: PQS is capable of weakly activating pqsA in the absence of PqsR via a mechanism that is not fully understood but appears to depend on the iron chelating properties of PQS. The aim of this experiment was to clarify whether lactam 4-(4-chlorophenyl)-5-methylene-pyrrol-2-one (Ref. 488) is also inhibitory for pqsA expression via the PqsR independent pathway. As previously described, the pqsA′::lux biosensor based on the triple mutant PAO1-N ΔpqsAHR cannot produce AQs and lacks pqsR but still responds to exogenous PQS. This response is however much weaker that the PqsR-dependent response.

[6] = tested on: P. aeruginosa PA14 pqsA'::lux; assay: pqsA'::lux fusion in P. aeruginosa PA14; type: cell-based; settings: Pseudomonas aeruginosa, PA14, read-out: IC50, pqsA'::lux expression in PA14
Source text: To investigate the inhibitory effect of 4-(4-chlorophenyl)-5-methylene-pyrrol-2-one (Ref. 488) on P. aeruginosa PA14, a pqsA′::lux fusion was introduced onto the chromosome.

Compound | inhibition of HHQ biosynthesis [1] | mode of action on PQS-dependent pqsA::lux expression ([2]; 488 at 0, 50, 100 and 200 μM, range of PQS, FIG. 9) | restoration of light output by PQS in the presence of the lactam ([2]; 488 at 50, 100, 200 μM, FIG. 9) | partial agonist activity (activation of pqsA expression) ([2]; concentrations up to 800 μM, without PQS, FIG. 10) | fold increase of PQS EC50 caused by the lactam ([2]; fixed concentration of 488 (215 μM)) | pyocyanin production [3] | IC50 [4] | inhibition of light output / pqsA expression at high concentrations [4] | inhibition of the PqsR-dependent pqsA::lux promoter fusion (screen) ([4]; lactams at 100 μM, FIG. 3) | effect on the PqsR-independent expression of pqsA [5] | IC50 [6] | EC50 ([2]; EC50 of PQS for pqsA::lux expression in the presence of lactam 488, fixed concentration of 488 (215 μM), range of PQS concentrations, FIG. 8) | EC50 ([2]; EC50 of PQS for pqsA::lux expression, PQS alone, PAO1-L ΔpqsA pqsA::lux) | EC50 ([2]; PQS alone, PAO1-L ΔpqsA pqsA::lux, read-out: EC50 of PQS for pqsA::lux expression)
C=C1NC(=O)C=C1c1ccc(Cl)cc1 [Lactam 488, 4-(4-chlorophenyl)-5-methylene-pyrrol-2-one] | did not inhibit HHQ biosynthesis | competitive antagonist | fully restoring light output in the presence of 50 μM but not 100 μM or 200 μM | no partial agonist activity | ~15 fold | inhibition of pyocyanin production | 22 µM | completely inhibited light output | most potent inhibitor | small inhibitory effect | 17.9 µM |  |  | 
C=C1NC(=O)C=C1c1ccc(C)cc1 [Lactam 491, 5-methylene-4-(p-tolyl)pyrrol-2-one] |  |  |  |  |  |  | 44 µM | did not inhibit pqsA expression as strongly |  |  |  |  |  | 
CCCCCCCc1[nH]c2ccccc2c(=O)c1O [PQS, 2-heptyl-3-hydroxy-4-(1H)-quinolone, reference compound] |  |  |  |  |  |  |  |  |  |  |  | 31 µM | ~2 µM | 2 µM
